Results reported in patent US20230115176A1 (Ra Pharmaceuticals, Inc., priority 2019, published 2023).
Read-outs that look alike come from different tables or passages of the source.

Tests used:
purified human C5 = purified human C5 (Homo sapiens, UniProt P01031); test: Red blood cell (RBC) hemolysis assay, optical, absorbance 412 nm (Example 10, Table 19); format: cell-based; settings: antibody-sensitized sheep erythrocytes, […] human C5 depleted sera
Human C5 = biological target: T1, Human C5 (Homo sapiens, UniProt P01031); test: Surface plasmon resonance (SPR), immobilized human C5 (Example 9, Table 18); format: binding
T1 construct: purchased Complement Technology
T1 sequence (P01031 19-1676): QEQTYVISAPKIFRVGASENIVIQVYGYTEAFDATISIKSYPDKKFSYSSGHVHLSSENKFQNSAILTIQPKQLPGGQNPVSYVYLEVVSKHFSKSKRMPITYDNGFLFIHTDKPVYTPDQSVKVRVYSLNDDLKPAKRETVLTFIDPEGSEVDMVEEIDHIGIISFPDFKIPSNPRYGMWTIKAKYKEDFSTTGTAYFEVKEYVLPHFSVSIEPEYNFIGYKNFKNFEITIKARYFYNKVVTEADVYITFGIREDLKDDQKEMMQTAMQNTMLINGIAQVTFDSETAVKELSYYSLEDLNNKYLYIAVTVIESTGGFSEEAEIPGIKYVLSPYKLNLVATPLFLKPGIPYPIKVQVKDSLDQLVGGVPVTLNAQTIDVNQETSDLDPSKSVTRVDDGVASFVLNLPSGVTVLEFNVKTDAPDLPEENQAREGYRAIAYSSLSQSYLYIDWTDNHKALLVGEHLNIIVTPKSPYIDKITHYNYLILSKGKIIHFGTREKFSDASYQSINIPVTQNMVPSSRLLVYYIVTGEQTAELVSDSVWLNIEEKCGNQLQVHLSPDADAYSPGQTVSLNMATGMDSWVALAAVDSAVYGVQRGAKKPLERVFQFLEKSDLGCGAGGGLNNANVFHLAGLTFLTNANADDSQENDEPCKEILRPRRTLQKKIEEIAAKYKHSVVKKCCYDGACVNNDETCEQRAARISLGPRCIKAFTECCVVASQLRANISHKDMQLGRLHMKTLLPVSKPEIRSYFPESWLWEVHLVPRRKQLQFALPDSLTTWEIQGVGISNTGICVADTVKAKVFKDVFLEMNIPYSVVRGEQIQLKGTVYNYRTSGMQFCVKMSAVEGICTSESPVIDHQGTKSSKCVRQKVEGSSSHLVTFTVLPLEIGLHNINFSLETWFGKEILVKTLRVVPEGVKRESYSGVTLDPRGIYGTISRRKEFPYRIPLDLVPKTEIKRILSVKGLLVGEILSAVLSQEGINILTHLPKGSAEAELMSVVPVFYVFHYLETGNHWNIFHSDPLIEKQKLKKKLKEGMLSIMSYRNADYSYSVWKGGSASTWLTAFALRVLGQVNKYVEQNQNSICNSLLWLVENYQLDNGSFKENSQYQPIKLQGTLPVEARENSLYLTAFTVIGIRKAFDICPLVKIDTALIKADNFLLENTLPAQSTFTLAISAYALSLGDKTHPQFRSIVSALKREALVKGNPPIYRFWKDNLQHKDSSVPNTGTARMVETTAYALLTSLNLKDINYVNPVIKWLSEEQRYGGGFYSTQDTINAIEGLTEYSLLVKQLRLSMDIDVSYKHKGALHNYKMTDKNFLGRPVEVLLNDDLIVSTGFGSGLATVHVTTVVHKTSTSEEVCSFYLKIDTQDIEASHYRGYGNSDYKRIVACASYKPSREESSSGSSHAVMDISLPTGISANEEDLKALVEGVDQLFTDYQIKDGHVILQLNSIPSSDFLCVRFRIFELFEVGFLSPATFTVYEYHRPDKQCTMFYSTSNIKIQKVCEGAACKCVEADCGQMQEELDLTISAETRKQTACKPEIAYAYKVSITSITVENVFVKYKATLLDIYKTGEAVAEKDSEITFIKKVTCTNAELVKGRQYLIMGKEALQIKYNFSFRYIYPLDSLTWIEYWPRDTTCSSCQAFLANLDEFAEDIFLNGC
Excerpt: Morrison and Boyd in “Organic Chemistry”, 6th edition, Prentice Hall (1992)] and validated for proper structure by mass spectrometry.

[1] = 0.5 nM purified human C5, absorbance 412 nm, read-out: RBC Hemolysis IC50
[2] = immobilized human C5, equilibrium dissociation constant, read-out: SPR C5 EQ KD
[3] = SPR, human C5 immobilized, read-out: equilibrium dissociation constant for interaction with C5

Sequence of purified human C5 (P01031 19-1676): as above

| SMILES | IC50 (purified human C5; [1]) [nM] | Kd (Human C5; [2]) [nM] | Kd (Human C5; [3]) [nM] | IC50 (purified human C5; 0.5 nM human C5, read-out: IC50) [nM] |
| --- | --- | --- | --- | --- |
| COc1ccc(NC(=O)NCc2ccccc2OCCC2CCOC2)cc1OCCCC(C)C (stereo not shown) [Compound C5INH-0338] | 4370 | 195 |  |  |
| CCOc1ccccc1CNC(=O)Nc1ccc(OC)c(OCCCC(C)C)c1 [Compound C5INH-0339] | 878 | 52 |  |  |
| COc1ccc(NC(=O)NCc2ccc3c(c2)OCCO3)cc1OCCCC(C)C [Compound C5INH-0340] | 992 | 75 |  |  |
| COc1ccc(NC(=O)NCc2cccc(CO)c2)cc1OCCCC(C)C [Compound C5INH-0342] | 1540 | 180 |  |  |
| COc1ccc(NC(=O)NCc2ccccc2N)cc1OCCCC(C)C [Compound C5INH-0343] | 3040 | 800 |  |  |
| COc1ccc(CNC(=O)Nc2ccc(OC)c(OCCCC(C)C)c2)c(OC)c1 [Compound C5INH-0348] | 72.5 | 10.2 | < 20 |  |
| COc1ccc(NC(=O)N[C@@H](CO)c2ccccc2)cc1OCCc1cccs1 [Compound C5INH-0349] | 1500 | 1210 |  |  |
| COc1ccc(NC(=O)N[C@@H](CO)c2ccccc2)cc1OCCC1CCCCC1 [Compound C5INH-0350] | 653 | 160 |  |  |
| COc1ccc(C(CO)NC(=O)Nc2ccc(OC)c(OCCCC(C)C)c2)cc1OC (stereo not shown) [Compound C5INH-0352] | 2950 | 700 |  |  |
| COc1ccc(NC(=O)NC(CO)c2ccc3[nH]ccc3c2)cc1OCCCC(C)C (stereo not shown) [Compound C5INH-0353] | 328 | 580 |  |  |
| COc1cc(CC(=O)O)c(NC(=O)N[C@H](CO)c2ccccc2)cc1OCCCC(C)C [Compound C5INH-0355] | 2930 | 441 |  |  |
| COc1ccc(NC(=O)NC(CO)c2cccc3[nH]ccc23)cc1OCCCC(C)C (stereo not shown) [Compound C5INH-0356] | 111 | 59 |  |  |
| COc1ccc(NC(=O)NCc2ccnc3c2ccn3C)cc1OCCCC(C)C [Compound C5INH-0361] | 2350 | 52 |  |  |
| COc1ccc(NC(=O)NC(CO)c2cccc3[nH]ncc23)cc1OCCCC(C)C (stereo not shown) [Compound C5INH-0366] | 762 | 82 |  |  |
| COc1ccc(NC(=O)N[C@@H](CO)c2ccccc2)cc1C(O)CCCC(C)C (stereo partly shown) [Compound C5INH-0367] | 475 | 102 |  |  |
| COc1ccc(NC(=O)NCc2cccc(N3CCN(C)CC3)c2)cc1OCCCC(C)C [Compound C5INH-0369] | 592 | 104 |  |  |
| COc1ccc(NC(=O)NC(CO)c2cccc(CNC(=O)OC(C)(C)C)c2)cc1OCCCC(C)C (stereo not shown) [Compound C5INH-0372] | 3270 | 670 |  |  |
| COc1ccc(NC(=O)NC(CO)c2cccc(CN)c2)cc1OCCCC(C)C (stereo not shown) [Compound C5INH-0373] | 1520 | 293 |  |  |
| COc1ccc(NC(=O)NCc2ccnc3c2ccn3CCN2CCCC2)cc1OCCCC(C)C [Compound C5INH-0377] | 156 | 47 |  |  |
| COc1ccc(NC(=O)NC(CO)c2cccc(CNCCN3CCOCC3)c2)cc1OCCCC(C)C (stereo not shown) [Compound C5INH-0379] | 3630 | 499 |  |  |
| COCCOc1cc(CNC(=O)Nc2ccc(OC)c(OCCCC(C)C)c2)ccn1 [Compound C5INH-0381] | 1040 | 120 |  |  |
| COc1ccc(NC(=O)NCc2ccnc(OCCN)c2)cc1OCCCC(C)C [Compound C5INH-0382] | 312 | 181 |  |  |
| COc1ccc(NC(=O)NCc2ccnc(OCCN(C)C)c2)cc1OCCCC(C)C [Compound C5INH-0383] | 293 | 102 |  |  |
| COCCOCCOc1cc(CNC(=O)Nc2ccc(OC)c(OCCCC(C)C)c2)ccn1 [Compound C5INH-0384] | 2180 | 810 |  |  |
| COc1ccc(NC(=O)N2CCc3ccc(O)cc3C2)cc1OCCCC(C)C [Compound C5INH-0385] | 1280 | 190 |  |  |
| COc1ccc(C2CCCN2C(=O)Nc2ccc(OC)c(OCCCC(C)C)c2)cc1 (stereo not shown) [Compound C5INH-0387] | 577 | 320 |  |  |
| COc1cccc(C2CCCN2C(=O)Nc2ccc(OC)c(OCCCC(C)C)c2)c1 (stereo not shown) [Compound C5INH-0388] | 970 | 970 |  |  |

| SMILES | IC50 (purified human C5; [1]) [nM] | Kd (Human C5; [2]) [nM] | Kd (Human C5; [3]) [nM] | IC50 (purified human C5; 0.5 nM human C5, read-out: IC50) [nM] |
| --- | --- | --- | --- | --- |
| COc1ccc(NC(=O)NCc2ccnc(NCCN(C)C)c2)cc1OCCCC(C)C [Compound C5INH-0389] | 1310 | 420 |  |  |
| COCCNc1cc(CNC(=O)Nc2ccc(OC)c(OCCCC(C)C)c2)ccn1 [Compound C5INH-0390] | 698 | 257 |  |  |
| COc1ccc(NC(=O)N[C@@H](CO)c2ccccc2O)cc1OCCCC(C)C [Compound C5INH-0395] | 13.6 | 9 | < 20 | < 20 |
| COc1ccc(NC(=O)N2CCCC2c2ccc(N(C)C)cc2)cc1OCCCC(C)C (stereo not shown) [Compound C5INH-0396] | 2330 | 1400 |  |  |
| COC(=O)c1cc(OC)c(OCCCC(C)C)cc1NC(=O)N[C@@H](CO)c1ccccc1 [Compound C5INH-0397] | 1380 | 2060 |  |  |
| COC(=O)CCn1ccc2c(CNC(=O)Nc3ccc(OC)c(OCCCC(C)C)c3)ccnc21 [Compound C5INH-0398] | 329 | 89 |  |  |
| COc1cnccc1CNC(=O)Nc1ccc(OC)c(OCCCC(C)C)c1 [Compound C5INH-0401] | 136 | 48 |  |  |
| COc1ccc(NC(=O)NCc2ccncc2OCCCN(C)C)cc1OCCCC(C)C [Compound C5INH-0402] | 1340 | 261 |  |  |
| COc1ccc(NC(=O)NCc2ccnc(N3CCCC(O)C3)c2)cc1OCCCC(C)C (stereo not shown) [Compound C5INH-0403] | 2990 | 220 |  |  |
| COc1ccc(NC(=O)N[C@H](CO)c2ccccc2)cc1C(F)C(F)CCC(C)C (stereo partly shown) [Compound C5INH-0406] | 683 | 760 |  |  |
| COc1ccc(NC(=O)NCc2ccnc3c2ccn3CCNS(C)(=O)=O)cc1OCCCC(C)C [Compound C5INH-0409] | 477 | 110 |  |  |
| CCS(=O)(=O)NCCn1ccc2c(CNC(=O)Nc3ccc(OC)c(OCCCC(C)C)c3)ccnc21 [Compound C5INH-0410] | 568 | 840 |  |  |
| COc1ccc(NC(=O)NCc2ccc3c(ccn3CCN(C)C)c2)cc1OCCCC(C)C [Compound C5INH-0414] | 781 | 500 |  |  |
| COc1ccc(NC(=O)NCc2ncccc2OC)cc1OCCCC(C)C [Compound C5INH-0417] | 1130 | 693 |  |  |
| COc1ccc(NC(=O)NCc2ccc(N3CCN(C)CC3)cc2)cc1OCCCC(C)C [Compound C5INH-0420] | 403 | 800 |  |  |
| COc1ccc(NC(=O)NCc2ccc(CN3CCOCC3)cc2)cc1OCCCC(C)C [Compound C5INH-0421] | 4590 | 1660 |  |  |
| COc1cc(CC(N)=O)c(NC(=O)N[C@@H](CO)c2ccccc2)cc1OCCCC(C)C [Compound C5INH-0422] | 1370 | 1340 |  |  |
| COc1ccc(NC(=O)NCc2ccc(N)nc2)cc1OCCCC(C)C [Compound C5INH-0428] | 3060 | 530 |  |  |
| CC(C)CCCOc1cc(NC(=O)N[C@@H](CO)c2ccccc2)ccc1N [Compound C5INH-0431] | 3790 | 1160 |  |  |
| COc1ccc(NC(=O)N[C@@H](CO)c2ccccc2)cc1C(F)CCCC(C)C (stereo partly shown) [Compound C5INH-0432] | 417 | 530 |  |  |
| COc1ccc(NC(=O)NCc2ccnc3c2ccn3C(C)=O)cc1OCCCC(C)C [Compound C5INH-0436] | 1700 | 510 |  |  |
| COc1ccc(NC(=O)NCc2cccc3c2ccn3CCN2CCOCC2)cc1OCCCC(C)C [Compound C5INH-0437] | 81.5 | 37 |  |  |
| COc1ccc(NC(=O)N(CCN2CCOCC2)Cc2cccc3c2ccn3CCN2CCOCC2)cc1OCCCC(C)C [Compound C5INH-0438] | 3000 | 2780 |  |  |
| COc1cc(CC(=O)N(C)C)c(NC(=O)N[C@@H](CO)c2ccccc2)cc1OCCCC(C)C [Compound C5INH-0440] | 3160 | 7600 |  |  |
| CNc1ccc(CNC(=O)Nc2ccc(OC)c(OCCCC(C)C)c2)cc1 [Compound C5INH-0443] | 1990 | 300 |  |  |
| COc1ccc(NC(=O)NCc2ccc(N(C)CC(N)=O)cc2)cc1OCCCC(C)C [Compound C5INH-0446] | 2710 | 184 |  |  |
